The values below come from patent US9284321B2, “Piperazino[1,2-a]indol-1-ones and [1,4]diazepino[1,2-a]indol-1-one” (Hoffmann-La Roche Inc., priority 2012, dated 2016).

Data set [1] concerns human embryonic stem cell derived neural stem cells (NSCs). Nature of the data set: Neural Stem Cell Proliferation Assay (neurogenesis assay, ATP levels by CellTiterGlo). It counts as cell-based. The settings on record: 96 h, compound concentration at which 150% activity of control (100%) is reached, NSC proliferation by ATP level after 4 days incubation, dose response 8 μM to 8 nM. The method in brief: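 Human ESC-derived NSCs (dual SMAD inhibition) seeded 4 h before compounds, 11-point 2-fold series 8 μM–8 nM; 4 days at 37 °C, 5% CO2. ATP by CellTiterGlo luminescence as cell-number proxy, response as % of media control (0.25% DMSO); EC150 = concentration giving 150% of control.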
(In general: Cellular ATP, detected with luciferase, serves as a proxy for viable cell number.)

As a reminder, the melting point is the temperature, or range, at which the solid turns liquid. As for `Cc1c2n(c3c(-c4ccc(Cl)c(Cl)c4)cc(F)cc13)CCNC2=O` [Example 86, 6-(3,4-Dichloro-phenyl)-8-fluoro-10-methyl-3,4-dihydro-2H-pyrazino[1,2-a]indol-1-one], the melting point came to 224 °C. The compound also registered an EC (150% of control) in data set [1] of 0.05 µM.

`Cc1c2n(c3c(-c4cccc(F)c4)cc(F)cc13)CCNC2=O` [Example 87, 8-Fluoro-6-(3-fluoro-phenyl)-10-methyl-3,4-dihydro-2H-pyrazino[1,2-a]indol-1-one] displayed a melting point of 222 °C. The EC (150% of control) in data set [1] is 0.1 µM.

In turn, `Cc1c2n(c3c(-c4ccccc4)cc(Cl)cc13)CCNC2=O` [Example 88, 8-Chloro-10-methyl-6-phenyl-3,4-dihydro-2H-pyrazino[1,2-a]indol-1-one] yielded a melting point of 230.5 °C. The same compound yielded an EC (150% of control) in data set [1] of 0.053 µM.

For `Cc1ccc(-c2cc(Cl)cc3c(C)c4n(c23)CCNC4=O)cc1` [Example 89, 8-Chloro-10-methyl-6-p-tolyl-3,4-dihydro-2H-pyrazino[1,2-a]indol-1-one], the melting point amounted to 251.5 °C. Besides, the EC (150% of control) in data set [1] stood at 0.01 µM.

In turn, `Cc1c2n(c3c(-c4ccc(C(F)(F)F)cc4)cc(Cl)cc13)CCNC2=O` [Example 90, 8-Chloro-10-methyl-6-(4-trifluoromethyl-phenyl)-3,4-dihydro-2H-pyrazino[1,2-a]indol-1-one] had a melting point of 260.5 °C. In data set [1], this compound displayed an EC (150% of control) of 0.017 µM.

In turn, `Cc1c2n(c3c(-c4ccncc4)cc(Cl)cc13)CCNC2=O` [Example 91, 8-Chloro-10-methyl-6-pyridin-4-yl-3,4-dihydro-2H-pyrazino[1,2-a]indol-1-one] showed a melting point of 295 °C. Moreover, in data set [1], the EC (150% of control) worked out at 0.017 µM.

Consider `N#Cc1cc(-c2ccncc2)c2c(c1)cc1n2CCNC1=O` [Example 92, 1-Oxo-6-pyridin-4-yl-1,2,3,4-tetrahydro-pyrazino[1,2-a]indole-8-carbonitrile], for which the melting point came out at 315.5 °C. The same compound displayed an EC (150% of control) in data set [1] of 0.047 µM.

With `N#Cc1cc(-c2ccccc2)c2c(c1)cc1n2CCNC1=O` [Example 93, 1-Oxo-6-phenyl-1,2,3,4-tetrahydro-pyrazino[1,2-a]indole-8-carbonitrile], the melting point came to 265.5 °C. The same compound yielded an EC (150% of control) in data set [1] of 0.035 µM.

Take `Cc1ccc(-c2cc(C#N)cc3cc4n(c23)CCNC4=O)cc1` [Example 94, 1-Oxo-6-p-tolyl-1,2,3,4-tetrahydro-pyrazino[1,2-a]indole-8-carbonitrile]: the melting point is 285.5 °C. For the same compound, the EC (150% of control) in data set [1] was 0.011 µM.

For the compound `N#Cc1cc(-c2ccc(C(F)(F)F)cc2)c2c(c1)cc1n2CCNC1=O` [Example 95, 1-Oxo-6-(4-trifluoromethyl-phenyl)-1,2,3,4-tetrahydro-pyrazino[1,2-a]indole-8-carbonitrile], the melting point came to 359 °C. In data set [1], this compound yielded an EC (150% of control) of 0.018 µM.

Regarding `Cc1c2n(c3c(-c4cccc(F)c4)cc(Cl)cc13)CCNC2=O` [Example 96, 8-Chloro-6-(3-fluoro-phenyl)-10-methyl-3,4-dihydro-2H-pyrazino[1,2-a]indol-1-one], the melting point was 239 °C. For the same compound, the EC (150% of control) in data set [1] was 0.15 µM.

`Cc1c2n(c3c(-c4ccc(Cl)c(Cl)c4)cc(Cl)cc13)CCNC2=O` [Example 97, 8-Chloro-6-(3,4-dichloro-phenyl)-10-methyl-3,4-dihydro-2H-pyrazino[1,2-a]indol-1-one] displayed a melting point of 240 °C. For the same compound, the EC (150% of control) in data set [1] came out at 0.056 µM.

For the compound `Cc1c2n(c3c(-c4ccc(Cl)c(F)c4)cc(Cl)cc13)CCNC2=O` [Example 98, 8-Chloro-6-(4-chloro-3-fluoro-phenyl)-10-methyl-3,4-dihydro-2H-pyrazino[1,2-a]indol-1-one], the melting point was determined as 242.5 °C. Moreover, the EC (150% of control) in data set [1] is 0.019 µM.

With `Cc1c2n(c3c(-c4cc(F)cc(F)c4)cc(Cl)cc13)CCNC2=O` [Example 99, 8-Chloro-6-(3,5-difluoro-phenyl)-10-methyl-3,4-dihydro-2H-pyrazino[1,2-a]indol-1-one], the melting point came to 241 °C. The compound further registered an EC (150% of control) in data set [1] of 0.12 µM.

For the compound `Cc1c2n(c3c(-c4ccc(F)cc4F)cc(Cl)cc13)CCNC2=O` [Example 100, 8-Chloro-6-(2,4-difluoro-phenyl)-10-methyl-3,4-dihydro-2H-pyrazino[1,2-a]indol-1-one], the melting point came out at 238 °C. In addition, the EC (150% of control) in data set [1] is 0.009 µM.

As to `Cc1c2n(c3c(-c4ccc(Cl)cc4F)cc(Cl)cc13)CCNC2=O` [Example 101, 8-Chloro-6-(4-chloro-2-fluoro-phenyl)-10-methyl-3,4-dihydro-2H-pyrazino[1,2-a]indol-1-one], the melting point was 251.5 °C. The compound further yielded an EC (150% of control) in data set [1] of 0.006 µM.

`Cc1c2n(c3c(-c4ccc(Cl)cc4Cl)cc(Cl)cc13)CCNC2=O` [Example 102, 8-Chloro-6-(2,4-dichloro-phenyl)-10-methyl-3,4-dihydro-2H-pyrazino[1,2-a]indol-1-one] yielded a melting point of 213 °C. In data set [1], this compound came in with an EC (150% of control) of 0.009 µM.

In the case of `Cc1c2n(c3c(-c4ccc5c(c4)OCO5)cc(Cl)cc13)CCNC2=O` [Example 103, 6-Benzo[1,3]dioxol-5-yl-8-chloro-10-methyl-3,4-dihydro-2H-pyrazino[1,2-a]indol-1-one], the melting point is 244.5 °C. In data set [1], this compound registered an EC (150% of control) of 0.018 µM.

On to `Cc1c2n(c3c(-c4ccc(C#N)cc4)cc(Cl)cc13)CCNC2=O` [Example 104, 4-(8-Chloro-10-methyl-1-oxo-1,2,3,4-tetrahydro-pyrazino[1,2-a]indol-6-yl)-benzonitrile], for which the melting point was found to be 290 °C. Besides, the EC (150% of control) in data set [1] was 0.015 µM.

With `Cc1ccc(-c2cc(Cl)cc3c(C)c4n(c23)CCNC4=O)cc1F` [Example 105, 8-Chloro-6-(3-fluoro-4-methyl-phenyl)-10-methyl-3,4-dihydro-2H-pyrazino[1,2-a]indol-1-one], the melting point stood at 225 °C. The EC (150% of control) in data set [1] came to 0.029 µM.

For the compound `Cc1c2n(c3c(-c4ccc(C(C)C)cc4)cc(Cl)cc13)CCNC2=O` [Example 106, 8-Chloro-6-(4-isopropyl-phenyl)-10-methyl-3,4-dihydro-2H-pyrazino[1,2-a]indol-1-one], the melting point was found to be 194.5 °C. The EC (150% of control) in data set [1] was determined as 0.05 µM.

In turn, `Cc1c2n(c3c(-c4ccc(S(C)(=O)=O)cc4)cc(Cl)cc13)CCNC2=O` [Example 107, 8-Chloro-6-(4-methanesulfonyl-phenyl)-10-methyl-3,4-dihydro-2H-pyrazino[1,2-a]indol-1-one] registered a melting point of 321.5 °C. Moreover, the EC (150% of control) in data set [1] came out at 0.027 µM.

In turn, `Cc1c2n(c3c(-c4ccnc(F)c4)cc(Cl)cc13)CCNC2=O` [Example 108, 8-Chloro-6-(2-fluoro-pyridin-4-yl)-10-methyl-3,4-dihydro-2H-pyrazino[1,2-a]indol-1-one] came in with a melting point of 290.5 °C. This compound showed an EC (150% of control) in data set [1] of 0.021 µM.

Compound `Cc1c2n(c3c(-c4ccc([N+](=O)[O-])cc4)cc(Cl)cc13)CCNC2=O` [Example 109, 8-Chloro-10-methyl-6-(4-nitro-phenyl)-3,4-dihydro-2H-pyrazino[1,2-a]indol-1-one] came in with a melting point of 313.5 °C. Besides, the EC (150% of control) in data set [1] amounted to 0.007 µM.

`Cc1c2n(c3c(-c4ccc(CO)cc4)cc(Cl)cc13)CCNC2=O` [Example 110, 8-Chloro-6-(4-hydroxymethyl-phenyl)-10-methyl-3,4-dihydro-2H-pyrazino[1,2-a]indol-1-one] displayed a melting point of 211 °C. This compound also yielded an EC (150% of control) in data set [1] of 0.014 µM.

Compound `COc1ccc(-c2cc(Cl)cc3c(C)c4n(c23)CCNC4=O)cn1` [Example 111, 8-Chloro-6-(6-methoxy-pyridin-3-yl)-10-methyl-3,4-dihydro-2H-pyrazino[1,2-a]indol-1-one] registered a melting point of 196 °C. In data set [1], this compound displayed an EC (150% of control) of 0.015 µM.

For `Cc1c2n(c3c(-c4ccc(Cl)nc4)cc(Cl)cc13)CCNC2=O` [Example 112, 8-Chloro-6-(6-chloro-pyridin-3-yl)-10-methyl-3,4-dihydro-2H-pyrazino[1,2-a]indol-1-one], the melting point is 276 °C. This compound also gave an EC (150% of control) in data set [1] of 0.012 µM.

`Cc1c2n(c3c(-c4ccc(N(C)C)cc4)cc(Cl)cc13)CCNC2=O` [Example 113, 8-Chloro-6-(4-dimethylamino-phenyl)-10-methyl-3,4-dihydro-2H-pyrazino[1,2-a]indol-1-one] came in with a melting point of 227 °C. Also, in data set [1], the EC (150% of control) was found to be 0.01 µM.

As to `Cc1c2n(c3c(-c4ccc(F)nc4)cc(Cl)cc13)CCNC2=O` [Example 114, 8-Chloro-6-(6-fluoro-pyridin-3-yl)-10-methyl-3,4-dihydro-2H-pyrazino[1,2-a]indol-1-one], the melting point amounted to 270 °C. The same compound registered an EC (150% of control) in data set [1] of 0.04 µM.

`Cc1c2n(c3c(-c4cccc(Cl)c4)cc(Cl)cc13)CCNC2=O` [Example 115, 8-Chloro-6-(3-chloro-phenyl)-10-methyl-3,4-dihydro-2H-pyrazino[1,2-a]indol-1-one] displayed a melting point of 218.5 °C. Further, the EC (150% of control) in data set [1] is 0.43 µM.

Turning to `Cc1c2n(c3c(-c4ccc5c(c4)CCO5)cc(Cl)cc13)CCNC2=O` [Example 116, 8-Chloro-6-(2,3-dihydro-benzofuran-5-yl)-10-methyl-3,4-dihydro-2H-pyrazino[1,2-a]indol-1-one], the melting point worked out at 261 °C. Also, the EC (150% of control) in data set [1] was 0.055 µM.

As to `Cc1c2n(c3c(-c4cccc(C#N)c4)cc(Cl)cc13)CCNC2=O` [Example 117, 3-(8-Chloro-10-methyl-1-oxo-1,2,3,4-tetrahydro-pyrazino[1,2-a]indol-6-yl)-benzonitrile], the melting point was found to be 199 °C. Also, in data set [1], the EC (150% of control) came to 0.4 µM.
